Reference: publication PMC6015222, “Targeting Phosphopeptide Recognition by the Human BRCA1 Tandem BRCT Domain to Interrupt BRCA1-Dependent Signaling” (Cell Chemical Biology, 2018)

Legend:
[1] = biological target: T1, MCPH1 tBRCT 2/3 (Homo sapiens, UniProt Q8NEM0); experiment: Competitive MST selectivity: MCPH1 tBRCT; type: binding
T1 construct: MCPH1 tBRCT 2/3 residues 640-835; 6x His (N); made in house; host or cells: E. coli BL21(DE3)
T1 sequence (Q8NEM0 640-835): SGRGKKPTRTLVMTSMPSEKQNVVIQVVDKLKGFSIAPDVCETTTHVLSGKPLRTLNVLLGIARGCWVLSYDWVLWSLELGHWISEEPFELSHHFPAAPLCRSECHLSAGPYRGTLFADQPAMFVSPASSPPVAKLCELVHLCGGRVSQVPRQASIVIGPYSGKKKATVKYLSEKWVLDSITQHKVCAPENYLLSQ
Method: Protein domains used in the assay were labeled with NT-647-NHS fluorescent dye using the Monolith NT™ Protein Labeling Kit (NanoTemper Technologies). Assays were carried out in 20mM Tris buffer, pH 7.4, with 200mM NaCl, 0.05% Tween-20 and 2mM DTT. For the direct binding assay, 10μl of labeled protein at a final concentration of 20nM was mixed with 10μl of test compound and incubated on ice for 10 min. For the competitive assay, 10μl of labeled protein at a final concentration of 20nM was mixed with 2μM cognate peptide substrate at the EC80 concentration determined by prior titration using a 16-point serial dilution by direct-binding MST. For both assays, samples prepared as above were centrifuged at 15000 rpm at 4°C for 10 min and 4μl of the supernatant was loaded into premium glass capillaries (NanoTemper Technologies). MST analysis was performed at MST power of 40% and LED power of 80%, at 22°C temperature using a Monolith NT.115 (NanoTemper Technologies). An initial “Capillary Scan” was performed to scan for fluorescence across the length of the capillary tray to determine the exact position of each capillary before the MST measurement was started. Test compounds were assayed at 16 different concentrations by serial dilution, and data were analysed using NanoTemper analysis software. Kd values were determined using “T-jump + Thermophoresis” settings. […]

[2] = biological target: T2, BRCA1 tBRCT / BACH1 unimolecular FRET biosensor (Homo sapiens, UniProt P38398); experiment: Unimolecular FRET biosensor assay in HEK293 cells (sensitized emission, acceptor photobleaching); type: cell-based; settings: 100 μM, 24 hr, 16 Gy
T2 construct: the BRCA1 tBRCT domain (aa 1643-1862); expressed in transfected cells
T2 sequence (P38398 1643-1862): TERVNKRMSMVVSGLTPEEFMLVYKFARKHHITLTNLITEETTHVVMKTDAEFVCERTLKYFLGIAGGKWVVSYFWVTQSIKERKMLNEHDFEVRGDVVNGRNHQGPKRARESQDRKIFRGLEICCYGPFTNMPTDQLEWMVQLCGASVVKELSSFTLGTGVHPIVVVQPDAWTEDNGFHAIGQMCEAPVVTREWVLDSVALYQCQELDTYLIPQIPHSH
Method: HEK293 cells expressing the stably integrated FRET sensor in a tetracycline-inducible system were used. 3.5x10^5 cells/35mm dish were seeded in Matrigel coated plates and expression was induced using doxycycline (1μg/ml) for 48 h. Cells were incubated with compounds for 24 h in serum containing media at 100μM final concentration with 0.5% DMSO. Where indicated, mCherry-BRCA1 tBRCT constructs were transiently transfected in a 4.5:1 ratio of Fugene:DNA and incubated in serum-containing media for 24 h (Fugene HD transfection reagent, Promega). Two h after 16 Gy IR, cells were washed in 1x PBS (pH 7.4) and fixed in 4% PFA at room temperature (RT) for 10’. Cells were mounted with Mowiol (without anti-fade) before imaging. The following excitation and emission wavelengths were used: Ex 402nm / Em 457nm for Tag-BFP; Ex 483nm / Em 506nm for Tag-GFP2 and Ex 594nm / Em 610nm for mCherry. […] Images acquired as noted below were quantified using HCS studio 2.0 (Thermo Fisher Scientific) to define nuclear morphology and average nuclear intensities.
For sensitized emission FRET measurements, images were acquired using a Zeiss epifluorescence microscope with Apotome using a 40x oil objective. […] Corrections for the extent of spectral cross-talk were calculated and applied as follows ([Müller et al., 2013]). […]

- binding to fluorescently labeled MCPH1 tBRCT domain [1]: does not detectably bind
Compound: O=C(c1ccc2nc(-c3ccccc3)[nH]c2c1)N1CCN(Cc2ccccc2F)CC1 [Bractoppin, (4-(2-fluorobenzyl)piperazin-1-yl) (2-phenyl-1H-benzo[d]imidazol-6-yl) methanone]
- effect on FRET efficiency of the biosensor [2]: inhibits FRET
